Our source for the IC50 values is ChEMBL document CHEMBL3994603, “Antioxidant Flavonols and Phenolic Compounds from Atraphaxis frutescens and Their Inhibitory Activities against Insect Phenoloxidase and Mushroom Tyrosinase” (J Nat Prod, 2016).

Some results are limits rather than exact numbers.

The experiment addresses Mushroom tyrosinase (Agaricus bisporus, UniProt O42713+Q00024+C7FF04+C7FF05).
Description: Inhibition of mushroom tyrosinase using L-DOPA as substrate preincubated for 5 mins followed by substrate addition measured for 10 mins by spectrophotometric method
One may read the IC50 as the concentration needed to halve the response being measured. `O=C(/C=C/c1ccc(O)cc1)NCCc1ccc(O)c(O)c1` yielded a concentration for half-maximal inhibition (IC50) of 4.3 mM.
`COc1cc(O)c2c(=O)c(O)c(-c3cc(O)c(O)c(O)c3)oc2c1OC(C)=O` came in with a concentration for half-maximal inhibition (IC50) above 5 mM.
`COc1cc(O)c2c(=O)c(O[C@@H]3O[C@@H](C)[C@H](O)[C@@H](O)[C@H]3O)c(-c3ccc(O)c(O)c3)oc2c1OC(C)=O` gave an IC50 above 5 mM.
Under `COc1cc(CO[C@@H]2O[C@H](CO)[C@@H](O)[C@H](O)[C@H]2O)cc(OC)c1OC` stands above 5 mM.
`COc1cc(CO[C@@H]2O[C@H](CO[C@@H]3O[C@@H](C)[C@H](O)[C@@H](O)[C@H]3O)[C@@H](O)[C@H](O)[C@H]2O)cc(OC)c1OC`: the IC50 was above 5 mM.
Under `COc1cc(O)c2c(=O)c(O[C@@H]3O[C@@H](C)[C@H](O)[C@@H](O)[C@H]3O)c(-c3cc(O)c(O)c(O)c3)oc2c1O` stands 1.2 mM.
Under `COc1cc(O)c2c(=O)c(O)c(-c3cc(O)c(O)c(O)c3)oc2c1O` stands above 5 mM; under `COc1cc(O)c2c(=O)c(O[C@@H]3O[C@@H](C)[C@H](O)[C@@H](O)[C@H]3O)c(-c3ccc(O)c(O)c3)oc2c1O`, 2.2 mM.
Consider `COc1cc(O)c2c(=O)c(O[C@@H]3O[C@@H](C)[C@H](O)[C@@H](O)[C@H]3O)c(-c3cc(O)c(O)c(O)c3)oc2c1O[C@@H]1O[C@H](CO)[C@@H](O)[C@H](O)[C@H]1O`, for which the half-inhibitory concentration (IC50) is 0.9 mM.
In the case of `COc1cc(O)c2c(=O)c(O[C@@H]3O[C@@H](C)[C@H](O)[C@@H](O)[C@H]3O)c(-c3ccc(O)c(O)c3)oc2c1O[C@@H]1O[C@H](CO)[C@@H](O)[C@H](O)[C@H]1O`, the half-inhibitory concentration (IC50) is given as 4 mM.
`COc1cc(O)c2c(=O)c(O[C@@H]3O[C@@H](C)[C@H](O)[C@@H](O)[C@H]3O)c(-c3cc(O)c(O)c(O)c3)oc2c1OC(C)=O` registered an IC50 of 4.7 mM.
Molecule `COc1cc(O)c2c(=O)c(O)c(-c3ccc(O)c(O)c3)oc2c1O` showed an IC50 above 5 mM.
For the molecule `COc1cc(O)c2c(=O)c(O[C@@H]3O[C@@H](C)[C@H](O)[C@@H](O)[C@H]3O)c(-c3cc(O)c(O)c(O)c3)oc2c1`, the IC50 was determined as 1.1 mM.
`COc1cc(O)c2c(=O)c(O)c(-c3ccc(O)c(O)c3)oc2c1OC(C)=O` had a 50% inhibitory concentration (IC50) above 5 mM.
Under `C[C@@H]1O[C@@H](Oc2c(-c3cc(O)c(O)c(O)c3)oc3cc(O)cc(O)c3c2=O)[C@H](O)[C@H](O)[C@H]1O` stands 2 mM; under `Oc1cc(O)c2c(c1)O[C@H](c1ccc(O)c(O)c1)[C@H](O)C2` [(-)-EPICATECHIN], above 5 mM; under `Oc1cc(O)c2c(c1)O[C@H](c1cc(O)c(O)c(O)c1)[C@H](O)C2` [EPIGALLOCATECHIN], 0.7 mM.
Then `Oc1cc(O)c2c(c1)O[C@H](c1cc(O)c(O)c(O)c1)[C@@H](O)C2` [GALLOCATECHIN], with 0.16 mM; and `O=C(/C=C/c1ccc(O)cc1)NCCc1ccc(O)cc1` [N-P-COUMAROYL TYRAMINE], with above 5 mM.
Take `COc1cc(/C=C/C(=O)NCCc2ccc(O)cc2)ccc1O` [N-TRANS-FERULOYL TYRAMINE]: the IC50 is listed as above 5 mM.
`COc1cc(/C=C/C(=O)NCCc2ccc(O)c(O)c2)ccc1O` [N-TRANS-FERULOYLDOPAMINE] gave a 50% inhibitory concentration (IC50) above 5 mM.
Turning to `Cc1c(C)c2c(c(C)c1O)CCC(C)(C(=O)O)O2` (configuration not stated) [TROLOX], the IC50 is reported as 0.7 mM.
